Test results from patent US9011853B2, “B7-H4 fusion proteins and methods of use thereof” (Amplimmune, Inc., priority 2009, dated 2015).

Experiments:
[1] = tested on: naïve CD4^+CD62L^+ T cells (responder) with nTreg cells; assay: In vitro nTreg suppression assay; assay type: cell-based, mouse; design: CD4+ T cell activation and proliferation: dose or concentration left out as unconfirmed
Description: Spleens and lymph nodes were harvested from 10 FoxP3-GFP mice on a B6 background. […] Naïve CD4^+ T cells were purified from the rest of the cells as described above. A total of 6.2×10^8 naïve CD4^+ T cells were collected. 5×10^7 cells were set aside to be effector T cells in the experiment. The remainder of the cells (5.7×10^8) were stained with anti-CD4 PE-Cy7, and the PE-Cy7^+/GFP^+ cells were sorted via MoFlo. A total of 4×10^6 nTreg (CD4^+/FoxP3^+) cells were collected from the MoFlo at 99% purity. […] The culture wells also received various ratios of nTreg cells: B7-H4-Ig. nTreg cells (CD4^+/CD62L^+/FoxP3-GFP^+) were isolated from B6/FoxP3-GFP mice by MoFLo sorting. Naïve GFP^− T cells CD4^+/CD62L^+/FoxP3-GFP^−) were used as responder cells. Increasing numbers of the nTreg cells were added to constant numbers of naïve CD4^+CD62L^+ T cells, irradiated splenocytic APCs, and anti-CD3 (FIG. 31). […]

Human T cells = assay: Quantitative RT-PCR of human T cells under Th17 differentiation cocktail; assay type: cell-based; details: 1 μg/mL, vs Synagis (FIG. 55)
Description: Human T cells were activated by anti-CD3 and anti-CD28 bound beads in the presence of Th17 differntiation cocktail (TGF-β1 (10 ng/mL), IL-6 (50 ng/mL), IL-23 (4 ng/mL), anti-IL-4 (10 μg/mL), anti-IFN-γ (5 μg/mL) and anti-IL-2 (5 μg/mL)). Cells were incubated with two different variants of B7-H4-Ig (1 μg/mL) identified as Q or L, or a humanized monoclonal IgG antibody directed against an epitope in the A antigenic site of the F protein of the Respiratory Syncytial Virus (Synagis), as an isotype control.

Q: What does the source list for “B7-H4-Ig: B7-H4 extracellular domain fused to Ig Fc; bare label is the human protein in Example 3, murine protein in Examples 1, 2, 5, 7-11”?
A: anti-CD3 induced T cell activation ([1]; 1:0.12 and 1:0.25 ratios of T cell responder:nTreg, 5 or 10 μg/mL (FIG. 32)): completely blocked anti-CD3 induced T cell activation; CD4+ T cell activation and proliferation ([1]; absence of nTreg cells (ratio 1:0), 0, 1, 5, or 10, anti-CD3 (FIG. 32)): suppressed CD4^+ T cell activation and proliferation in a dose dependent manner; expression of mRNA involved in Th17 cell differentiation (RORc, IL-17A, IL-17F, IL-21, IL-22) (Human T cells): downregulates the expression of mRNA involved in Th17 cell differentiation
